Series [1] concerns the target Nav 1.7 (Homo sapiens (Human), UniProt Q15858). In words: Inhibition of sodium channels, Red Membrane Potential Dye FLIPR assay, veratridine depolarization. The format is cell-based. To be noted: HEK-293 cells overexpressing the channel; read-out: Nav1.7 IC50.
Series [2] deals with Nav 1.5 (Homo sapiens (Human), UniProt Q14524). Described as above. The class given is cell-based. To be noted: HEK-293 cells overexpressing the channel; for inhibition at 10 µM: HEK-293 cells overexpressing Nav 1.5.
Where [3] appears, read: read-out: Nav1.5 IC50 (bound given in μM).

Like-named read-outs stand apart in the source and are kept apart here.

Nav 1.5, sequence (Q14524 whole entry): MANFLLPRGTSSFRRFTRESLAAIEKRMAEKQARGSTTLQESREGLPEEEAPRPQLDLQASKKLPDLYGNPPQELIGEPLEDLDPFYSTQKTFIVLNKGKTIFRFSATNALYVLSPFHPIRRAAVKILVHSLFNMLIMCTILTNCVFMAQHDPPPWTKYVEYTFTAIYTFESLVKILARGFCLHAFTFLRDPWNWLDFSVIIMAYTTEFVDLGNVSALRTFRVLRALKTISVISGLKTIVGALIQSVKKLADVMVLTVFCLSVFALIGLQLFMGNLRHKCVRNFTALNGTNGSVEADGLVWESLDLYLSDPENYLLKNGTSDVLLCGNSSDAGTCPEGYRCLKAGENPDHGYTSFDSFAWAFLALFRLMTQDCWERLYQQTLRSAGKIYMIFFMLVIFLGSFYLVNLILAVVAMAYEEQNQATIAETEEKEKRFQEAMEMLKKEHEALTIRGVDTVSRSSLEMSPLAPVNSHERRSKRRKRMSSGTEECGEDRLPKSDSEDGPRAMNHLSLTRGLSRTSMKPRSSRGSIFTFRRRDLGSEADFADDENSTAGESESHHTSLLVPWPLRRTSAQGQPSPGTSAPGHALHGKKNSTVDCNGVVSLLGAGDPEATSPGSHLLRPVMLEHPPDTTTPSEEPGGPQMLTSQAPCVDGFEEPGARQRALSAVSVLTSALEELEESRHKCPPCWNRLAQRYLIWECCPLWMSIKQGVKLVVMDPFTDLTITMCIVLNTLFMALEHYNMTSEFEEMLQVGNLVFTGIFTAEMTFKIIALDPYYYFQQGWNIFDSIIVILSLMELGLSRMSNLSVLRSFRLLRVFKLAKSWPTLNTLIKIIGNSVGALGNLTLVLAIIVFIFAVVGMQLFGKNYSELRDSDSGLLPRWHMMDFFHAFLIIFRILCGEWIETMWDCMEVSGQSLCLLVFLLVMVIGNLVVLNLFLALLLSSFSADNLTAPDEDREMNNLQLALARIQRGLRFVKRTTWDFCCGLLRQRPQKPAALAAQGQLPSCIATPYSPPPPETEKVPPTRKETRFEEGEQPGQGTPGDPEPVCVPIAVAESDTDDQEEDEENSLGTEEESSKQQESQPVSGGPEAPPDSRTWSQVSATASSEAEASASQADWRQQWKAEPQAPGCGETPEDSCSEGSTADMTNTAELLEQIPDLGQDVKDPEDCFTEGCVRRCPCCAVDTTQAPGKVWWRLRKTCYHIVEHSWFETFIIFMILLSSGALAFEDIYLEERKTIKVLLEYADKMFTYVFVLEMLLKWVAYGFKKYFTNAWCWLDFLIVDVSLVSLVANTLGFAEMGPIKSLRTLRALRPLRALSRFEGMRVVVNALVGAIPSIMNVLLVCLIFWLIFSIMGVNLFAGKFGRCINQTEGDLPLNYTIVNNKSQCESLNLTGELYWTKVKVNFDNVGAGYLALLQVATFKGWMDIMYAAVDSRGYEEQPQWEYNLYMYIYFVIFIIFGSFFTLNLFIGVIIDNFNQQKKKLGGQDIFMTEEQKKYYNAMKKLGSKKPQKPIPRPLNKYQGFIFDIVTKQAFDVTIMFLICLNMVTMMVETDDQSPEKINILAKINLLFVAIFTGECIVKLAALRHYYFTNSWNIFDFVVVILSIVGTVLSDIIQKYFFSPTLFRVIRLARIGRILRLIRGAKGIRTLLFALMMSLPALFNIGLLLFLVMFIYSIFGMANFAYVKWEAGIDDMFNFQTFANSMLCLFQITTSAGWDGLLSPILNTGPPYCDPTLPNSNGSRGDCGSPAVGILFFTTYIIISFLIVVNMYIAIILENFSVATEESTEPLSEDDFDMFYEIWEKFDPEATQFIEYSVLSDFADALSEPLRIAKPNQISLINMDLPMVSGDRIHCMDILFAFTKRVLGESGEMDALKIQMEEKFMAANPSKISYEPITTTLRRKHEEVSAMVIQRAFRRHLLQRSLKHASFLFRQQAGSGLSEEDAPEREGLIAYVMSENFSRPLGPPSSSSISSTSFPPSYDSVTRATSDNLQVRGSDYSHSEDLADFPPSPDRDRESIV
Nav 1.7, sequence (Q15858 whole entry): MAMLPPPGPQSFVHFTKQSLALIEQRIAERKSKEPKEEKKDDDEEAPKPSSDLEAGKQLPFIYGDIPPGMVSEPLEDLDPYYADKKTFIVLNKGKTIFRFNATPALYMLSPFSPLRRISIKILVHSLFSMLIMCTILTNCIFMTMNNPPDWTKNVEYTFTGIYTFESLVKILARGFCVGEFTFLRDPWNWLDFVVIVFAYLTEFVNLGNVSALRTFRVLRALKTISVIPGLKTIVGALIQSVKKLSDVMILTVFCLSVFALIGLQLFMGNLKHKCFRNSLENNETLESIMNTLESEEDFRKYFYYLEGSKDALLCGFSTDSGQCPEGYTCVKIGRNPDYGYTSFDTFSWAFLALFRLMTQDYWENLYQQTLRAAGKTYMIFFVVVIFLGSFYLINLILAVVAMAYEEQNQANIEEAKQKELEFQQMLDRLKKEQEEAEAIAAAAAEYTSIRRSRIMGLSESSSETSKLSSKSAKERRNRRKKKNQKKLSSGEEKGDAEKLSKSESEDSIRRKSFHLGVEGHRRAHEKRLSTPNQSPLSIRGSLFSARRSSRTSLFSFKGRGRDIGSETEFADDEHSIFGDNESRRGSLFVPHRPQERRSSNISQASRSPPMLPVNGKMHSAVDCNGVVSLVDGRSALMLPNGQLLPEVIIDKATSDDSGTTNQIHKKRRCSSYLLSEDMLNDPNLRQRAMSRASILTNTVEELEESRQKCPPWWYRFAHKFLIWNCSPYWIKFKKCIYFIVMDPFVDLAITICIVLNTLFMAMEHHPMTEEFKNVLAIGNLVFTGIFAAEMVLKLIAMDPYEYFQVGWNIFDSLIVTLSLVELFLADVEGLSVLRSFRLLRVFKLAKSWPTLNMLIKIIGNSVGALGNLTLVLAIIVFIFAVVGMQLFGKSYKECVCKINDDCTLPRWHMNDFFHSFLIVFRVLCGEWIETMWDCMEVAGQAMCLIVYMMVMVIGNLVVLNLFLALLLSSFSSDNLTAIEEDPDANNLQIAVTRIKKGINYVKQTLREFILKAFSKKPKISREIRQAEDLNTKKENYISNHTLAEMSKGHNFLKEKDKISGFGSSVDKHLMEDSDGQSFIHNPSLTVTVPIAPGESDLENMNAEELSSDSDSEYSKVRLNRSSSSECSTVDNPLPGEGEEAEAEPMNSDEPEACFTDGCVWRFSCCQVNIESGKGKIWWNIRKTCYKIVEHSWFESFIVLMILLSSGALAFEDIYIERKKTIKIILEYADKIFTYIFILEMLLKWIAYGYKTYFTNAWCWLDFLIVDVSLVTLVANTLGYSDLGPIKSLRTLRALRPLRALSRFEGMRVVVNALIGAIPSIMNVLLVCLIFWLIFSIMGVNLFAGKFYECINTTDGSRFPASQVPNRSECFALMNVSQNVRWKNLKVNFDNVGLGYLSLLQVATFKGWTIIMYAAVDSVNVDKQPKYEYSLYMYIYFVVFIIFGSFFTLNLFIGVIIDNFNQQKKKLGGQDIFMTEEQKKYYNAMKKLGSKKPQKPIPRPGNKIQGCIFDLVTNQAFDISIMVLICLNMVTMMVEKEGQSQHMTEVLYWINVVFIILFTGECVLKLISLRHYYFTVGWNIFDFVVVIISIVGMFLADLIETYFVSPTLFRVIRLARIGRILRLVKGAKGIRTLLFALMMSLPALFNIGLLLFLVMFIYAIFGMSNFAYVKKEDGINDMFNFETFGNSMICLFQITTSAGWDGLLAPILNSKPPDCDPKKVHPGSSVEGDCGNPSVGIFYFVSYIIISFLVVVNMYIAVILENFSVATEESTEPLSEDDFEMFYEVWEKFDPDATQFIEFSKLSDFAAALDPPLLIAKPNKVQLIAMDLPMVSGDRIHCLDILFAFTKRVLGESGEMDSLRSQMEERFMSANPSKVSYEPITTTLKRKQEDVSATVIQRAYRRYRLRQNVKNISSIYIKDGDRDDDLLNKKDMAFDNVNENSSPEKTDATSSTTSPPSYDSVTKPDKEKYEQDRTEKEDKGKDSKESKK

Consider `COCCCc1cc(C(F)(F)F)ccc1[C@H]1CCOc2cc(S(=O)(=O)Nc3ncc(F)cn3)ccc21` (racemic) [Example 142, (R/S)—N-(5-fluoropyrimidin-2-yl)-4-(2-(3-methoxypropyl)-4-(trifluoromethyl)phenyl)chroman-7-sulfonamide], for which the results for the IC50 in series [1] and in series [2] (setting [3]) were 179 nM and greater than 10 µM, respectively.
Turning to `COCCCc1cc(C(F)(F)F)ccc1[C@H]1CCOc2cc(S(=O)(=O)Nc3ccncn3)ccc21` (racemic) [Example 143, (R/S)-4-(2-(3-methoxypropyl)-4-(trifluoromethyl)phenyl)-N-(pyrimidin-4-yl)chroman-7-sulfonamide], the IC50 (commonly the concentration that inhibits the measured activity by half) in series [1] was determined as 16 nM; in series [2] (read-out: Nav1.5 IC50), 0.534 µM.
With `COCCCc1cc(C(F)(F)F)ccc1[C@H]1CCOc2cc(S(=O)(=O)Nc3cccnn3)ccc21` (racemic) [Example 144, (R/S)-4-(2-(3-methoxypropyl)-4-(trifluoromethyl)phenyl)-N-(pyridazin-3-yl)chroman-7-sulfonamide], the IC50 is 86 nM in series [1] and 2.68 µM in series [2] (read-out: Nav1.5 IC50).
Turning to `COCCCc1cc(C(F)(F)F)ccc1[C@H]1CCOc2cc(S(=O)(=O)Nc3cccc(F)n3)ccc21` (racemic) [Example 145, (R/S)—N-(6-fluoropyridin-2-yl)-4-(2-(3-methoxypropyl)-4-(trifluoromethyl)phenyl)chroman-7-sulfonamide], the IC50 in series [1] was determined as 19 nM; in series [2] (read-out: Nav1.5 IC50) it was 2.41 µM.
On to `COCCCCc1cc(C(F)(F)F)ccc1[C@H]1CCOc2cc(S(=O)(=O)Nc3ncc(F)cn3)ccc21` (racemic) [Example 148, (R/S)—N-(5-fluoropyrimidin-2-yl)-4-(2-(4-methoxybutyl)-4-(trifluoromethyl)phenyl)chroman-7-sulfonamide], for which the IC50 in series [1] was 172 nM; in series [2] (setting [3]), greater than 10 µM.
Take `COCCCCc1cc(C(F)(F)F)ccc1[C@H]1CCOc2cc(S(=O)(=O)Nc3ccncn3)ccc21` (racemic) [Example 149, (R/S)-4-(2-(4-methoxybutyl)-4-(trifluoromethyl)phenyl)-N-(pyrimidin-4-yl)chroman-7-sulfonamide]: the IC50 in series [1] is 21 nM. In series [2], the inhibition (in general, the percentage by which the read-out fell short of the control) at 10 µM was 58%.
Take `COCCCCc1cc(C(F)(F)F)ccc1[C@H]1CCOc2cc(S(=O)(=O)Nc3cccnn3)ccc21` (racemic) [Example 150, (R/S)-4-(2-(4-methoxybutyl)-4-(trifluoromethyl)phenyl)-N-(pyridazin-3-yl)chroman-7-sulfonamide]: the values for the concentration for half-maximal inhibition (IC50) in series [1] and in series [2] (read-out: Nav1.5 IC50) were 31 nM and 1.43 µM, respectively.
In the case of `O=S(=O)(Nc1ncccn1)c1ccc2c(c1)OCC[C@@H]2c1ccc(C(F)(F)F)cc1CCF` (racemic) [Example 153, (R/S)-4-(2-(2-fluoroethyl)-4-(trifluoromethyl)phenyl)-N-(pyrimidin-2-yl)chroman-7-sulfonamide], the IC50 in series [1] was 39 nM. In series [2], this compound yielded an inhibition at 10 µM of 35%.
Regarding `O=S(=O)(Nc1ncc(F)cn1)c1ccc2c(c1)OCC[C@@H]2c1ccc(C(F)(F)F)cc1CCF` (racemic) [Example 154, (R/S)-4-(2-(2-fluoroethyl)-4-(trifluoromethyl)phenyl)-N-(5-fluoropyrimidin-2-yl)chroman-7-sulfonamide], the IC50 in series [1] is 83 nM; in series [2] (setting [3]), greater than 10 µM.
For the compound `O=S(=O)(Nc1ccncn1)c1ccc2c(c1)OCC[C@@H]2c1ccc(C(F)(F)F)cc1CCF` (racemic) [Example 155, (R/S)-4-(2-(2-fluoroethyl)-4-(trifluoromethyl)phenyl)-N-(pyrimidin-4-yl)chroman-7-sulfonamide], the results for the IC50 in series [1] and in series [2] (setting [3]) were 4 nM and greater than 10 µM, respectively.
As to `O=S(=O)(Nc1cccnn1)c1ccc2c(c1)OCC[C@@H]2c1ccc(C(F)(F)F)cc1CCF` (racemic) [Example 156, (R/S)-4-(2-(2-fluoroethyl)-4-(trifluoromethyl)phenyl)-N-(pyridazin-3-yl)chroman-7-sulfonamide], the IC50 in series [1] is 42 nM. In series [2], this compound returned an inhibition at 10 µM of 36%.
Consider `O=S(=O)(Nc1cccc(F)n1)c1ccc2c(c1)OCC[C@@H]2c1ccc(C(F)(F)F)cc1CCF` (racemic) [Example 157, (R/S)-4-(2-(2-fluoroethyl)-4-(trifluoromethyl)phenyl)-N-(6-fluoropyridin-2-yl)chroman-7-sulfonamide], for which the IC50 in series [1] is 42 nM; in series [2] (setting [3]) it was greater than 10 µM.
Regarding `O=S(=O)(Nc1ncccn1)c1ccc2c(c1)OCC[C@@H]2c1ccc(C(F)(F)F)cc1CCCF` (racemic) [Example 158, (R/S)-4-(2-(3-fluoropropyl)-4-(trifluoromethyl)phenyl)-N-(pyrimidin-2-yl)chroman-7-sulfonamide], the IC50 is 130 nM in series [1] and 0.505 µM in series [2] (read-out: Nav1.5 IC50).
The corresponding values for `O=S(=O)(Nc1ncc(F)cn1)c1ccc2c(c1)OCC[C@@H]2c1ccc(C(F)(F)F)cc1CCCF` (racemic) [Example 159, (R/S)-4-(2-(3-fluoropropyl)-4-(trifluoromethyl)phenyl)-N-(5-fluoropyrimidin-2-yl)chroman-7-sulfonamide] are 10 nM and 0.943 µM.
Turning to `O=S(=O)(Nc1ccncn1)c1ccc2c(c1)OCC[C@@H]2c1ccc(C(F)(F)F)cc1CCCF` (racemic) [Example 160, (R/S)-4-(2-(3-fluoropropyl)-4-(trifluoromethyl)phenyl)-N-(pyrimidin-4-yl)chroman-7-sulfonamide], the IC50 in series [1] came to 0.7 nM. Moreover, the inhibition at 10 µM in series [2] worked out at 61%.
Turning to `O=S(=O)(Nc1cccnn1)c1ccc2c(c1)OCC[C@@H]2c1ccc(C(F)(F)F)cc1CCCF` (racemic) [Example 161, (R/S)-4-(2-(3-fluoropropyl)-4-(trifluoromethyl)phenyl)-N-(pyridazin-3-yl)chroman-7-sulfonamide], the IC50 in series [1] was found to be 12 nM; in series [2] (read-out: Nav1.5 IC50) it was 1.35 µM.
Consider `O=S(=O)(Nc1cccc(F)n1)c1ccc2c(c1)OCC[C@@H]2c1ccc(C(F)(F)F)cc1CCCF` (racemic) [Example 162, (R/S)-4-(2-(3-fluoropropyl)-4-(trifluoromethyl)phenyl)-N-(6-fluoropyridin-2-yl)chroman-7-sulfonamide], for which the half-inhibitory concentration (IC50) in series [1] stood at 0.7 nM; in series [2] (read-out: Nav1.5 IC50) it was 2.64 µM.
The corresponding values for `O=S(=O)(Nc1ncccn1)c1ccc2c(c1)OCC[C@@H]2c1ccc(C(F)(F)F)cc1CCCCF` (racemic) [Example 163, (R/S)-4-(2-(4-fluorobutyl)-4-(trifluoromethyl)phenyl)-N-(pyrimidin-2-yl)chroman-7-sulfonamide] are 42 nM and 0.307 µM.
In the case of `O=S(=O)(Nc1ncc(F)cn1)c1ccc2c(c1)OCC[C@@H]2c1ccc(C(F)(F)F)cc1CCCCF` (racemic) [Example 164, (R/S)-4-(2-(4-fluorobutyl)-4-(trifluoromethyl)phenyl)-N-(5-fluoropyrimidin-2-yl)chroman-7-sulfonamide], the half-maximal inhibitory concentration (IC50) in series [1] was 61 nM. In addition, the inhibition at 10 µM in series [2] was 81%.
As for `O=S(=O)(Nc1ccncn1)c1ccc2c(c1)OCC[C@@H]2c1ccc(C(F)(F)F)cc1CCCCF` (racemic) [Example 165, (R/S)-4-(2-(4-fluorobutyl)-4-(trifluoromethyl)phenyl)-N-(pyrimidin-4-yl)chroman-7-sulfonamide], the 50% inhibitory concentration (IC50) came out at 5 nM in series [1] and 0.303 µM in series [2] (read-out: Nav1.5 IC50).
Consider `O=S(=O)(Nc1cccnn1)c1ccc2c(c1)OCC[C@@H]2c1ccc(C(F)(F)F)cc1CCCCF` (racemic) [Example 166, (R/S)-4-(2-(4-fluorobutyl)-4-(trifluoromethyl)phenyl)-N-(pyridazin-3-yl)chroman-7-sulfonamide], for which the concentration for half-maximal inhibition (IC50) was found to be 50 nM in series [1] and 0.134 µM in series [2] (read-out: Nav1.5 IC50).
With `O=S(=O)(Nc1cccc(F)n1)c1ccc2c(c1)OCC[C@@H]2c1ccc(C(F)(F)F)cc1CCCCF` (racemic) [Example 167, (R/S)-4-(2-(4-fluorobutyl)-4-(trifluoromethyl)phenyl)-N-(6-fluoropyridin-2-yl)chroman-7-sulfonamide], the IC50 turned out to be 58 nM in series [1] and 0.241 µM in series [2] (read-out: Nav1.5 IC50).
Regarding `O=S(=O)(Nc1ncc(F)cn1)c1ccc2c(c1)OCC[C@@H]2c1ccc(C(F)(F)F)cc1O[C@H]1CCOC1` (racemic) [Example-182, (S/R)—N-(5-fluoropyrimidin-2-yl)-4-(2-(((S)-tetrahydrofuran-3-yl)oxy)-4-(trifluoromethyl)phenyl)chroman-7-sulfonamide], in series [1], the IC50 came out at 55 nM. In series [2], this compound yielded an inhibition at 10 µM of 30%.
As to `O=S(=O)(Nc1ccncn1)c1ccc2c(c1)OCC[C@@H]2c1ccc(C(F)(F)F)cc1O[C@H]1CCOC1` (racemic) [Example-183, (S/R)—N-(pyrimidin-4-yl)-4-(2-(((S)-tetrahydrofuran-3-yl)oxy)-4-(trifluoromethyl)phenyl)chroman-7-sulfonamide], the IC50 in series [1] was 11 nM; in series [2] (setting [3]), greater than 10 µM.
Turning to `O=S(=O)(Nc1cccnn1)c1ccc2c(c1)OCC[C@@H]2c1ccc(C(F)(F)F)cc1O[C@H]1CCOC1` (racemic) [Example-184, (S/R)—N-(pyridazin-3-yl)-4-(2-(((S)-tetrahydrofuran-3-yl)oxy)-4-(trifluoromethyl)phenyl)chroman-7-sulfonamide], the IC50 in series [1] was determined as 170 nM. This compound also returned an inhibition at 10 µM in series [2] of 67%.
`O=C(O)c1ccc(-c2cc(C(F)(F)F)ccc2[C@H]2CCOc3cc(S(=O)(=O)Nc4cccnn4)ccc32)cc1` (racemic) [Example-191, (R/S)-2′-(7-(N-(pyridazin-3-yl)sulfamoyl)chroman-4-yl)-5′-(trifluoromethyl)-[1,1′-biphenyl]-4-carboxylic acid]: the IC50 in series [1] is 671 nM; in series [2] (setting [3]), greater than 10 µM.
Turning to `O=C(O)c1ccc(-c2cc(C(F)(F)F)ccc2[C@H]2CCOc3cc(S(=O)(=O)Nc4cccc(F)n4)ccc32)cc1` (racemic) [Example-192, (R/S)-2′-(7-(N-(6-fluoropyridin-2-yl)sulfamoyl)chroman-4-yl)-5′-(trifluoromethyl)-[1,1′-biphenyl]-4-carboxylic acid], the IC50 in series [1] was 8 nM; in series [2] (setting [3]), greater than 10 µM.

For the origin of these results see patent US10239869B2, “Sulfonamide compounds as voltage-gated sodium channel modulators” (LUPIN LIMITED, priority 2015, dated 2019).
